Source: patent publication US20220264883A1, “IMIDAZOTHIAZOLE COMPOUNDS AND METHODS FOR TREATING PLANT NEMATODE INFECTIONS” (The Governing Council of the University of Toronto, priority 2019, published 2022)
“And” between values parts separate entries of the source, which are not always exact repeats. Equal values may be shown once.

Tests used:
M. incognita = experiment: Meloidogyne incognita infectivity assays (tomato roots in soil); assay type: in vivo; details: 45 μM in soil, 8 weeks, eggs per mg root relative to DMSO control
Method: (§1) An M. incognita population originally collected from grape (Vitis vinifera) in Parlier, Calif., was used for all experiments, and they were maintained on tomato plants (Solanum lycopersicum ‘Rutgers’) as previously described^73. Infective J2 juveniles were collected as described in^73. For the infectivity assays, 90 grams of soil (1:1 sand:loam mix) was added to each cell of several 6-cell plastic garden packs. The soil was drenched with 18 mL of deionized water containing dissolved chemical or DMSO alone. 2,500 infective J2 juveniles were then added to the soil in 2 mL of deionized water, for a total water volume of 20 mL. The final concentration of the chemicals in water was 45 μM. The DMSO concentration varied from 0.1% to 0.8% (v/v) depending on the stock concentration of the chemical. The highest DMSO concentration was used as the DMSO control. The J2s were incubated in the soil and chemical for 24 hours, after which two- to three-week old tomato seedlings were transplanted into the soil (one plant per cell). Two replicates were performed for each chemical treatment, and four replicates were done for the DMSO controls. The whole experiment was replicated twice, in two different batches on two different days, for a total of four replicates for each chemical treatment, and eight replicates for the DMSO controls. Inoculated plants were grown for 8 weeks in a greenhouse, as described^73, under long-day conditions (16-h photoperiod) with 26/18° C. day/night temperatures. After 8 weeks, the plants were destructively harvested. The tops were removed and discarded, and roots were gently washed with water to remove adhering soil. Eggs were extracted by placing rinsed roots in 0.6% sodium hypochlorite and agitating at 300 rpm for 3 min. Roots were then rinsed over nested 250- and 25.4-μm sieves, with eggs collected from the latter and suspended in water. Roots were dried in a 65° C. oven for at least 24 hours, after which dry roots were weighed. The number of eggs from each plant root was counted on a dissection microscope using a haemocytometer, and the number of eggs per milligram of root was calculated by dividing the total egg number by the mass of the dried root material. An average was taken across the replicates performed on the same day, and then normalized to the DMSO control average. To calculate percent effectiveness at inhibiting reproduction, the normalized values were subtracted from 1, and then multiplied by 100. An average percent effectiveness value was then calculated across the two different batches carried out on different days.

tomato plants = experiment: Root mass of tomato plants in the infectivity assays; assay type: in vivo, Solanum lycopersicum; details: 45 μM
Method: as §1

C. elegans [1] = experiment: C. elegans minimum lethal concentration dose-response; assay type: in vivo, Caenorhabditis elegans; details: for minimal effective concentration: Caenorhabditis elegans, C. elegans viability
Method: (§2) Forty microliters of an HB101 bacterial suspension in liquid NGM (see above) was added to each well of a 96-well flat-bottom culture plate, after which approximately 25 synchronized L1 worms, in 10 μl of M9 buffer (see ref. 59 for the recipe), were added to each well. The synchronized L1 worms were obtained from an embryo preparation performed the previous day (see ref. 59 for the protocol). For the L1 assays, 0.5 μl of chemical solution (or DMSO alone) was immediately added to the wells using a multichannel pipette, the final DMSO concentration is 1% (v/v). The worms were incubated for 3 days at 20° C. and the number of viable animals was counted. […] Although the counts were performed after 3 days of incubation in the chemical, it was noted that the L1s were dead within 24 hours of the addition of the chemicals. For the L2/L3 assays, the worms were incubated in the absence of chemical for 1 day at 20° C. until they reached the L2/L3 stage, at which point chemical was added as described above. The worms were then allowed to incubate for 2 days at 20° C. and the number of viable animals was counted as described for the L1 assay. For the L4 assays, the worms were incubated for 2 days at 20° C. before the addition of chemicals. The L4-stage worms were then incubated in chemical for an additional day before quantifying the number of viable animals. The adult assays were performed the same way as the L4 assays, however HT115 E. coli carrying the empty dsRNA expressing vector L4440 was used in place of HB101 and the worms were cultured at 25° C. as opposed to 20° C. for the entirety of the experiment. The HT115 suspension was made by concentrating a bacterial culture, with an OD600 of ˜ 0.8, five-fold with liquid NGM containing 1 mM IPTG and 100 μg/ml carbenicillin. The HT115 cells were induced with 1 mM IPTG for one hour before concentrating with NGM.
Compounds Ia to Im, dose-response assays were performed with C. elegans. 8 of the compounds killed C. elegans with minimum lethal concentrations less than or equal to 100 μM (Table 6). Compounds Ia, Ic, and Ij were the most potently lethal nematicides in this assay, having minimum lethal concentrations of 6.25 μM and below. The positive control nematicide tioxazafen killed nematodes at 3.13 μM and above.

C. elegans [2] = experiment: C. elegans viability at a single concentration (Table 3); assay type: in vivo; details: Caenorhabditis elegans; 100 μM
Method: as §2
(§3) The ability of exemplary compounds of the application to kill C. elegans at 100 μM (except for compound If which was tested at 50 μM) and to affect the mobility of M. chitwoodi at 45 μM was tested as described above for M. incognita infective juveniles. Percent mobility was measured after 2 days of chronic exposure to test compounds (Table 3).

M. chitwoodi = experiment: Root-knot nematode M. chitwoodi mobility (Table 3); assay type: in vivo, Meloidogyne chitwoodi; details: 45 μM, 2 days of chronic exposure
Method: (§4) M. incognita (Kofoid & White) Chitwood Race 1 (originally isolated in Maryland) was used for all experiments, and was maintained on pepper (Capsicum annuum L.) cv. PA-136 in a greenhouse as previously described^64. Infective J2 juveniles were collected as described in ref.65. The microwell dose-response experiments were carried out similarly to previously described protocols^64, 66. In brief, 100 J2s, in 10 μL of deionized water, were added to the wells of 96-well polystyrene plates, after which 190 μL of deionized water containing dissolved chemical, or DMSO alone, was added to each well. The chemicals were tested at 45 μM, and the final concentration of DMSO in each well was 0.5% (v/v). The wells were covered with a plastic adhesive strip, and the lids of the plates were sealed with parafilm. The plates were incubated at 25° C. The mobile fraction of worms was quantified by counting the number of mobile and immobile worms after 2 days of incubation, and then dividing the number of mobile worms by the total number of worms in the well. Three technical replicates were performed for each treatment, and an average value for the mobile fraction of worms was calculated across the three replicates. The percent effectiveness at inhibiting nematode movement was calculated by dividing the average value for the chemical treatment by the average value for the DMSO control, then subtracting this value from 1, and then multiplying by 100.
(§5) M. chitwoodi race 1 (the strain commonly found in the pacific northwest of the United States) was used for all experiments, and was maintained on tomato plants (Solanum lycopersicum ‘Rutgers’) as previously described^73. The M. chitwoodi in vitro assays were performed identically to the M. incognita in vitro assays (see above).
as §3

M. incognita J2 larvae = experiment: Meloidogyne incognita in vitro assays (J2 movement); assay type: in vivo; details: 45 μM, 2 days, relative to DMSO control
Method: as §4

Arabidopsis thaliana = Arabidopsis thaliana greening experiments; assay type: in vivo; details: 5, 15 and 45 micromolar, greening after 4 days
Method: Greening experiments were performed with Arabidopsis thaliana seeds of wild type Col-0; seeds were surface sterilized in bleach and plated onto 0.5×MS, 0.5% sucrose agar medium supplemented with compounds of interest at 5, 15 and 45 μM concentrations. After 4 d of stratification at 4° C., plates were transferred to a growth chamber (16 h/8 h, 150 μE/m^2) and greening recorded after 4 days. Pictures were recorded by camera (SONY a7s) with FE1.8/55 lens (FE 55 mm F1.8 ZA; SEL55F18Z). Experiments were performed in triplicate for each treatment.

[3] = test system: M. incognita infective juveniles; experiment: Meloidogyne incognita dose-response experiments (infective J2 juveniles, FIG. 2); assay type: in vivo; details: 5, 15, 45 micromolar; third day after water rinse
Method: M. incognita (Kofoid & White) Chitwood Race 1 (originally isolated in Maryland) was used for all experiments, and were maintained on pepper (Capsicum annuum L.) cv. PA-136 in a greenhouse as previously described^64. Infective J2 juveniles were collected as described in ref. 65. The microwell dose-response experiments were carried out similarly to previously described protocols^64, 66. In brief, 100 J2 s, in 10 μL of deionized water, were added to the wells of 96-well polystyrene plates, after which 190 μL of deionized water containing dissolved chemical, or DMSO alone, was added to each well. The final concentration of DMSO in each well was 0.5% (v/v), except for the water only control which contained no DMSO and no added chemicals. The final concentrations of the chemicals for each dose-response experiment were 5, 15, and 45 μM. The wells were covered with a plastic adhesive strip, and the lids of the plates were sealed with parafilm. The plates were incubated at 25° C. The fraction of active worms was quantified by counting the number of mobile and immobile worms after 1 and 2 days of incubation, and then dividing the number of mobile worms by the total number of worms in the well. After 2 days of incubation, the chemicals were removed and replaced with deionized water (i.e. the water rinse) and the fraction of active worms was quantified 1 day later. A failure of the worms to recover after rinsing with water is consistent with them having been killed by the chemical treatment. Four technical replicates were performed for each treatment.

M. chitwoodi J2 larvae = experiment: Meloidogyne chitwoodi in vitro assays (J2 movement); assay type: in vivo; details: 45 μM, 2 days, relative to DMSO control
Method: as §4, §5

HepG2 cells = experiment: HepG2 cell proliferation assay; assay type: cell-based, human; details: for IC50: Alamar Blue
Method: HepG2 cells, which are liver-derived, were counted using a haemocytometer, diluted, and seeded in […] to a final density of 5×10^4 cells/mL in 100 uL of RPMI-1640 medium supplemented with 10% heat inactivated fetal bovine serum (Gibco) and 1.2×Antibiotic-Antimycotic (Gibco). Cells were incubated at 37° C. with 5% CO2 for 24 hours. Subsequently, a 2-fold dilution series of test compound was added to cells at a final volume of 200 uL and incubated at 37° C. with 5% CO2 for 72 hours. After 72 hours, Alamar Blue (Invitrogen) was added to the Hep G2 cells at a final concentration of 0.5× and plates were incubated at 37° C. for 4 hours. Fluorescence was measured at Ex560 nm/Em590 nm and corrected for background from the medium. All assays were performed in technical triplicates and in at least two biological replicates. The IC50 value was defined as the concentration that inhibits cell proliferation by 50% of the untreated control cells.

SMILES: Cc1csc2nc(-c3ccc(Br)cc3)cn12 [Compound Il, 6-(4-bromophenyl)-3-methylimidazo[2,1-b]thiazole]
- % effectiveness at inhibiting reproduction of M. incognita (M. incognita): 8.1%
- Normalized root mass (relative to DMSO control) (tomato plants): 1.4
- minimal effective concentration (C. elegans [1]): 25 µM and 7.3 µg/mL

SMILES: Cc1cn2cc(-c3ccc(F)cc3)nc2s1 [Ii]
- viability at 100 µM (C. elegans [2]): 100%
- RKN mobility (M. chitwoodi): 28.9%
- % effectiveness at reducing M. incognita movement (M. incognita J2 larvae): 0.0%
- minimal effective concentration (C. elegans [1]): > 100 µM and > 23.2 µg/mL

SMILES: O=C(NCCc1ncc(C(F)(F)F)cc1Cl)c1ccccc1C(F)(F)F [fluopyram, reference compound]
- effect on health and greening of Arabidopsis thaliana plants (phytotoxicity) (Arabidopsis thaliana): phytotoxic at 15 and 45 micromolar
- nematicidal activity on M. incognita infective juveniles [3]: most potent compound tested

SMILES: Cc1cn2cc(-c3ccc(Br)cc3)nc2s1 [Compound Im, 6-(4-bromophenyl)-2-methylimidazo[2,1-b]thiazole]
- % effectiveness at inhibiting reproduction of M. incognita (M. incognita): 1.2%
- Normalized root mass (relative to DMSO control) (tomato plants): 1.1
- minimal effective concentration (C. elegans [1]): > 100 µM and > 29.3 µg/mL

SMILES: Cc1cn2cc(-c3ccc(I)cc3)nc2s1 [Ih]
- viability at 100 µM (C. elegans [2]): 95.4%
- RKN mobility (M. chitwoodi): 82.5%
- % effectiveness at inhibiting reproduction of M. incognita (M. incognita): 25.7%
- % effectiveness at reducing M. chitwoodi movement (M. chitwoodi J2 larvae): 5.6%
- % effectiveness at reducing M. incognita movement (M. incognita J2 larvae): 0.0%
- Normalized root mass (relative to DMSO control) (tomato plants): 1.3
- minimal effective concentration (C. elegans [1]): > 100 µM and > 34 µg/mL

SMILES: Cc1csc2nc(-c3ccc(F)cc3)cn12 [Compound Ik, 6-(4-fluorophenyl)-3-methylimidazo[2,1-b]thiazole]
- % effectiveness at inhibiting reproduction of M. incognita (M. incognita): 0.6%
- Normalized root mass (relative to DMSO control) (tomato plants): 1.0
- minimal effective concentration (C. elegans [1]): 50 µM and 11.6 µg/mL

SMILES: c1ccc(-c2noc(-c3cccs3)n2)cc1 [tioxazafen, reference compound]
- effect on health and greening of Arabidopsis thaliana plants (phytotoxicity) (Arabidopsis thaliana): phytotoxic at 15 and 45 micromolar
- % effectiveness at inhibiting reproduction of M. incognita (M. incognita): 43.7%
- IC50 (HepG2 cells; 72 hours): > 100 µM
- % effectiveness at reducing M. chitwoodi movement (M. chitwoodi J2 larvae): 40.0%
- % effectiveness at reducing M. incognita movement (M. incognita J2 larvae): 55.5%
- Normalized root mass (relative to DMSO control) (tomato plants): 1.1
- times more potent at killing C. elegans than compound Ig (C. elegans [1]; ratio of minimum lethal concentrations): more than 32 times

SMILES: Cc1cn2cc(-c3ccc(Cl)cc3)nc2s1 [Compound Ig]
- viability at 100 µM (C. elegans [2]): 100%
- RKN mobility (M. chitwoodi): 82.4%
- % effectiveness at inhibiting reproduction of M. incognita (M. incognita): 44.2%
- HepG2 IC50 (HepG2 cells; 72 hours, approximate ppm equivalent): > 25 ppm
- IC50 (HepG2 cells; Homo sapiens, HepG2, 72 hours): > 100 µM
- % effectiveness at reducing M. chitwoodi movement (M. chitwoodi J2 larvae): 5.7%
- % effectiveness at reducing M. incognita movement (M. incognita J2 larvae): 0.0%
- Normalized root mass (relative to DMSO control) (tomato plants): 1.4
- minimal effective concentration (C. elegans [1]): > 24.9 µg/mL
